From publication PMC12528448, “Resistance to CDK7 inhibitors directed by acquired mutation of a conserved residue in cancer cells” (The EMBO Journal, 2025)
Values joined by “and” are separate entries in the source; they are usually repeats but may differ in a detail not shown here. Equal values may be shown once.

Columns and labels:
MCF7 cells = test: IncuCyte confluency growth, MCF7; format: cell-based, human
Method: (§1) To determine the IC50 of drug treatments on growth, cells were seeded in 96-well culture plates. Two days after seeding, the cells were treated with increasing concentrations of drugs and incubated for 4 days. Cell number was determined using the SRB assay (Skehan et al, [1990]), and IC50 values were calculated using non-linear regression curve fitting in GraphPad Prism v10. For all other growth experiments, cells were seeded into 96-well plates, and appropriate drugs were added 2 days after seeding. Cells were then incubated in an IncuCyte Zoom live-cell imager, with cell confluency measured every 6 h. Cell doubling times were determined by non-linear curve fitting (exponential growth equation) in GraphPad Prism v10.

[1] = system: MCF7-CDK4^WT/D99N (CL4) cells; test: IncuCyte confluency growth, heterozygous CDK4 D99N clone CL4; format: cell-based, human; settings: MCF7 CDK4 WT/D99N CL4, 50nM Palbociclib
Method: as §1

In the case of `CC(=O)c1c(C)c2cnc(Nc3ccc(N4CCNCC4)cn3)nc2n(C2CCCC2)c1=O` [Palbociclib], the “% Conluency” value (MCF7 cells; MCF7, 50nM Palbociclib, 48 Hours) was 21.09% and 17.14% and 31.73%, the “% Conluency” value (MCF7 cells; MCF7, 50nM Palbociclib, 60 Hours) was 26.85% and 21.06% and 38.57% and the “% Conluency” value (MCF7 cells; MCF7, 50nM Palbociclib, 72 Hours) was 33.08% and 25.69% and 49.56%. For the same compound, the “% Conluency” value (MCF7 cells; MCF7, 50nM Palbociclib, 84 Hours) was 42.76% and 32.56% and 62.06%, the “% Conluency” value (MCF7 cells; MCF7, 50nM Palbociclib, 96 Hours) was 53.46% and 40.59% and 75.59% and the “% Conluency” value (MCF7 cells; MCF7, 50nM Palbociclib, 120 Hours) was 76.28% and 61.62% and 89.48%. The “% Conluency” value (MCF7 cells; MCF7, 50nM Palbociclib, 132 Hours) was 87.22% and 71.34% and 95.67%, the “% Conluency” value (MCF7 cells; MCF7, 50nM Palbociclib, 144 Hours) was 95.25% and 77.28% and 98.12% and the “% Conluency” value (MCF7 cells; MCF7, 100nM Palbociclib, 48 Hours) was 20.67% and 15.77% and 27.22%. For the same compound, the “% Conluency” value (MCF7 cells; MCF7, 100nM Palbociclib, 60 Hours) was 25.56% and 18.66% and 32.25%, the “% Conluency” value (MCF7 cells; MCF7, 100nM Palbociclib, 72 Hours) was 32.06% and 22.38% and 39.17% and the “% Conluency” value (MCF7 cells; MCF7, 100nM Palbociclib, 84 Hours) was 40.13% and 28.06% and 49.01%. For the same compound, the “% Conluency” value (MCF7 cells; MCF7, 100nM Palbociclib, 96 Hours) was 50.09% and 33.82% and 60.83%, the “% Conluency” value (MCF7 cells; MCF7, 100nM Palbociclib, 120 Hours) was 70.64% and 49.63% and 77.85% and the “% Conluency” value (MCF7 cells; MCF7, 100nM Palbociclib, 132 Hours) was 77.85% and 58.56% and 85.38%. For the same compound, the “% Conluency” value (MCF7 cells; MCF7, 100nM Palbociclib, 144 Hours) was 87.15%, the “% Conluency” value (MCF7 cells; MCF7, 500nM Palbociclib, 48 Hours) was 17.33% and 13.43% and 25.36% and the “% Conluency” value (MCF7 cells; MCF7, 500nM Palbociclib, 60 Hours) was 19.30% and 15.00% and 28.50%. For the same compound, the “% Conluency” value (MCF7 cells; MCF7, 500nM Palbociclib, 72 Hours) was 22.35% and 16.89% and 33.09%, the “% Conluency” value (MCF7 cells; MCF7, 500nM Palbociclib, 120 Hours) was 35.55% and 26.80% and 51.35% and the “% Conluency” value (MCF7 cells; MCF7, 500nM Palbociclib, 132 Hours) was 36.87% and 29.33% and 55.68%. For the same compound, the “% Conluency” value (MCF7 cells; MCF7, 500nM Palbociclib, 144 Hours) was 41.22% and 32.10% and 58.75%, the “% Conluency” value (MCF7 cells; MCF7, 1000nM Palbociclib, 48 Hours) was 16.59% and 13.44% and 21.86% and the “% Conluency” value (MCF7 cells; MCF7, 1000nM Palbociclib, 60 Hours) was 18.56% and 14.52% and 24.10%. The “% Conluency” value (MCF7 cells; MCF7, 1000nM Palbociclib, 72 Hours) was 20.73% and 16.23% and 26.86%, the “% Conluency” value (MCF7 cells; MCF7, 1000nM Palbociclib, 84 Hours) was 23.01% and 18.11% and 30.06% and the “% Conluency” value (MCF7 cells; MCF7, 1000nM Palbociclib, 96 Hours) was 25.25% and 20.25% and 34.64%. The “% Conluency” value (MCF7 cells; MCF7, 1000nM Palbociclib, 120 Hours) was 30.07% and 24.29% and 38.56%, the “% Conluency” value (MCF7 cells; MCF7, 1000nM Palbociclib, 132 Hours) was 30.94% and 26.42% and 40.12% and the “% Conluency” value (MCF7 cells; MCF7, 1000nM Palbociclib, 144 Hours) was 33.62% and 26.11% and 42.54%. For the same compound, the Doubling time (MCF7 cells; MCF7, 1 µM Palbociclib) was 138.9 (95% CI = 96.8–238.0) h, the “Increase of doubling time vs vehicle” value (MCF7 cells; MCF7, 1 µM Palbociclib) was “fivefold” and the Confluency (MCF7 cells; MCF7, 1 µM Palbociclib, at 250 h) was 50%. For the same compound, the “Growth inhibition” value (MCF7 cells; MCF7, IncuCyte) was “growth inhibited by Palbociclib in a dose-dependent manner”, the “% Confluency” value ([1]; 0 Hours) was 5.85% and 7.14% and 7.68% and the “% Confluency” value ([1]; 12 Hours) was 8.21% and 10.76% and 12.27%. For the same compound, the “% Confluency” value ([1]; 24 Hours) was 10.88% and 13.85% and 15.74%, the “% Confluency” value ([1]; 36 Hours) was 13.80% and 16.38% and 19.05% and the “% Confluency” value ([1]; 48 Hours) was 17.70% and 21.33% and 24.63%. The “% Confluency” value ([1]; 60 Hours) was 22.48% and 27.81% and 30.42% and the “% Confluency” value ([1]; 72 Hours) was 27.76% and 35.03% and 37.64%.
